According to patent US11059778B2, “Cannabinoid receptor CB2 ligand 4-(aminomethyl)-N, N-dialkylanilines” (UNIVERSITY OF PITTSBURGH—OF THE COMMONWEALTH SYSTEM OF …, priority 2015, dated 2021):

How the values were obtained:
[1] = target: T1, human CB2 receptors (Homo sapiens, UniProt P34972); test: [3H]CP-55,940 radioligand competition binding assay, CB2; conditions: for Ki: CHO cell membranes, [3H]CP-55,940 displacement
T1 construct: expressed in transfected cells
Description: (§1) Binding assay. The bioassay is carried out using the Perkin Elmer 96-well Top Counter. This bioassay is also known as a competition binding assay and the biological evaluation is to determine the CB receptor binding affinity (Ki) of the screened ligands by displacing [^3H]-CP-55940 (or other radioligands). The brief procedure is given below.
(§2) Perkin Elmer 96-well TopCounter is used at PMLSC and in our laboratory to determine the CB receptor binding affinity (Ki) of the in-silico screened ligands by displacing [^3H]-CP-55,940 (or other radioligands). In competition binding experiments, the tested compound dilutions are carried out in triplicate in TME buffer (25 mM Tris, 5 mM MgCl2, 1 mM EDTA) containing 0.1% (w/v) fatty acid free bovine serum albumin (BSA), pH 7.4. Various concentrations of the tested compound are added in the same volume to 0.5 nM [^3H]CP-55,940. TME buffer and cell membrane preparations expressing CB receptors (2.5 μg per well) are added to a final volume of 200 μL. For the saturation binding experiments, varying concentrations of [^3H]CP-55,940 (0.05-1.5 nM) with or without 2 μM of unlabeled ligands (CP-55,940 or WIN-55,212-2) are incubated with the receptor membrane preparations to determine Kd and nonspecific binding. After the binding suspensions are incubated at 30° C. for 1 hr, the reaction is terminated by rapid filtration through microfiltration plates coated with 0.5% polyethylenimine (Unifilter GF/B filterplate, PerkinElmer) followed by 5 washes with ice cold TME buffer containing 0.5% BSA on a Packard Filtermate Harvester (PerkinElmer). The plates are then dried overnight and 30 μl MicroScint 0 scintillation cocktail are added to each well of the dried filter plates. Then the bound radioactivity is counted using a Perkin Elmer 96-well TopCounter. The Ki is calculated by using nonlinear regression analysis (Prism 5; GraphPad Software Inc., San Diego, Calif.), with the Kd values for [^3H]CP-55,940 determined from saturation binding experiments. This assay is used for determining binding affinity parameters (Ki) of ligand-receptor interactions for the CB receptor.
(§3) The affinities of the synthesized ligands were determined in radioligand binding studies at human CB1 and CB2 receptors using [3H](—)-cis-3-[2-hydroxy-4-(1,1 dimethylheptyl)phenyl]-trans-4-(3-hydroxypropyl) cyclohexanol (CP55,940) as a CB receptor radioligand. As a source for human CB1 and CB2 receptors, membrane preparations of Chinese hamster ovary (CHO) cells stably expressing the respective receptor subtype were utilized (50 μg of protein/vial). CB2 selective ligand SR144528 (CB2 inverse agonist) and CB1 ligand SR141716 (CB1 inverse agonist) were used as positive controls, respectively, along with the tested compounds in bioassays experiments. Only compounds with high CB2 receptor binding potency was chosen to carry out the CB1 binding assay. CB ligand competition binding assay was carried out as described previously in Gertsch, J., et al., Beta-caryophyllene is a dietary cannabinoid. Proc Natl Acad Sci USA 2008, 105 (26), 9099-104. Briefly, non-radioactive (or cold) ligands (synthesized derivatives and reference ligands) were diluted in a binding buffer (50 mM Tris-HCl (pH 7.4), 5 mM MgC12, 2.5 mM EGTA, and 0.1% (w/v) fatty acid free BSA), supplemented with 10% dimethyl sulfoxide and 0.4% methyl cellulose. Each assay plate well contained a total of 200 μL of reaction mixture composed of 5 μg of CB1 (or 2.5 μg CB2) membrane protein, labeled [3H]-CP-55,940 ligand at a final concentration of 2.5 nM, and the unlabeled ligand at its varying dilutions as stated above. Plates were incubated at 30° C. for 1 hour with gentle shaking.
(§4) The reaction was terminated by rapid filtration through Unifilter GF/B filter plates using a Unifilter Cell Harvester (PerkinElmer). After the plate was allowed to dry overnight, 30 μL MicroScint-0 cocktail (PerkinElmer) was added to each well, and the radioactivity was counted using a PerkinElmer TopCounter. […]

[2] = target: T2, human CB1 receptors (Homo sapiens, UniProt P21554); test: [3H]CP-55,940 radioligand competition binding assay, CB1; conditions: CHO cell membranes, [3H]CP-55,940 displacement
T2 construct: expressed in transfected cells
Description: as §1, §2, §3, §4

T2 sequence (P21554 whole entry): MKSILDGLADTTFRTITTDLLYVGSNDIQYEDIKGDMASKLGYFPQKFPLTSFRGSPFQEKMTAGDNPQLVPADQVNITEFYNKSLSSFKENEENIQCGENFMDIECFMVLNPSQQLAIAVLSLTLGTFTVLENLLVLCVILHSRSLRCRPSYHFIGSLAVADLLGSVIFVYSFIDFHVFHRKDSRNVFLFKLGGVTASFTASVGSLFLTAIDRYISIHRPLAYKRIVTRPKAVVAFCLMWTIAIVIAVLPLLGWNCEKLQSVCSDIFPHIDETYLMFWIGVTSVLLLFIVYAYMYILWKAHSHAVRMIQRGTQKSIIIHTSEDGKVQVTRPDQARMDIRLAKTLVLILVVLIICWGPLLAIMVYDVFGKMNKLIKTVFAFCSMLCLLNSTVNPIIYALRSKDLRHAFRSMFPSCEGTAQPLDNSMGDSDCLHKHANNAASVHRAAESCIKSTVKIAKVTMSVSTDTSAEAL
T1 sequence (P34972 whole entry): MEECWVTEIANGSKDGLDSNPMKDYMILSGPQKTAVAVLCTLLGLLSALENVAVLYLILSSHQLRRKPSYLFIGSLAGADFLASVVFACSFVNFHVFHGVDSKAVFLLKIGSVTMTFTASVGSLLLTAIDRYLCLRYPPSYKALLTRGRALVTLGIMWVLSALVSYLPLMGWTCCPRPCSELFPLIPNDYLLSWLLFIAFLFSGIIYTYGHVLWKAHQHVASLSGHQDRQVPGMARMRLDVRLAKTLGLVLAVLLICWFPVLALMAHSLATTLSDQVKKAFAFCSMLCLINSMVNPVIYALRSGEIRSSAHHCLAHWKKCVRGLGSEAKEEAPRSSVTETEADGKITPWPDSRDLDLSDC

Row | SI: selectivity index for CB2, calculated as Ki(CB1)/Ki(CB2) ratio [1] | Ki [1] [nM] | Ki [2] [nM] | SMILES
1 | 62 | 322 | > 20000 | CCN(CC)c1ccc(CN(Cc2cc(OC)c(OC)c(OC)c2)S(=O)(=O)c2ccc(-c3ccccc3)cc2)cc1 [Compound 10, N-(4-(diethylamino)benzyl)-N-(3,4,5-trimethoxybenzyl)-[1,1′-biphenyl]-4-sulfonamide]
2 |  | > 20000 |  | CCN(CC)c1ccc(CNCc2cccnc2)cc1 [Compound 20, N,N-diethyl-4-(((pyridin-3-ylmethyl)amino)methyl)aniline]
3 | 1 | 1870 | 2740 | CCN(CC)c1ccc(CN(Cc2ccc3c(c2)OCO3)S(=O)(=O)c2ccc(C=O)cc2)cc1 [Compound 30, N-(benzo[d][1,3]dioxol-5-ylmethyl)-N-(4-(diethylamino)benzyl)-4-formylbenzenesulfonamide]
4 |  | 882 |  | CCN(CC)c1ccc(CN(Cc2ccc3c(c2)OCO3)S(=O)(=O)c2ccc3ccccc3c2)cc1 [Compound 33, N-(benzo[d][1,3]dioxol-5-ylmethyl)-N-(4-(diethylamino)benzyl)naphthalene-2-sulfonamide]
5 | 10 | 515 | 5240 | CCCCCN(Cc1ccc(N(CC)CC)cc1)S(=O)(=O)/C=C/c1ccccc1 [Compound 37, (E)-N-(4-(diethylamino)benzyl)-N-pentyl-2-phenylethene-1-sulfonamide]
6 | 3 | 291 | 732 | CCN(CC)c1ccc(CN(Cc2cc(OC)c(OC)c(OC)c2)S(=O)(=O)c2cccc(C)c2)cc1 [Compound 5, N-(4-(diethylamino)benzyl)-3-methyl-N-(3,4,5-trimethoxybenzyl)benzenesulfonamide]
7 |  | 1200 |  | CCN(CC)c1ccc(CN(Cc2cccnc2)C(=O)c2cnc3ccccc3n2)cc1 [Compound 22, N-(4-(diethylamino)benzyl)-N-(pyridin-3-ylmethyl)quinoxaline-2-carboxamide]
8 | 7 | 362 | 2440 | CCCCCN(Cc1ccc(N(CC)CC)cc1)C(=O)c1cccs1 [Compound 40, N-(4-(diethylamino)benzyl)-N-pentylthiophene-2-carboxamide]
9 | 1 | 1850 | 1860 | CCCCCN(Cc1ccc(N(CC)CC)cc1)C(=O)c1cnc2ccccc2n1 [Compound 39, N-(4-(diethylamino)benzyl)-N-pentylquinoxaline-2-carboxamide]
10 |  | > 20000 |  | CCN(CC)c1ccc(CNCc2ccc3c(c2)OCO3)cc1 [Compound 28, 4-(((benzo[d][1,3]dioxol-5-ylmethyl)amino)methyl)-N,N-diethylaniline]
11 |  | 40200 |  | CCCCCNCc1ccc(N(CC)CC)cc1 [Compound 36, N,N-diethyl-4-((pentylamino)methyl)aniline]
12 |  | 42300 |  | CCN(CC)c1ccc(CNCc2cc(OC)c(OC)c(OC)c2)cc1 [Compound 3, N,N-diethyl-4-(((3,4,5-trimethoxybenzyl)amino)methyl)aniline]
13 |  | 657 |  | CCN(CC)c1ccc(CN(Cc2cc(OC)c(OC)c(OC)c2)S(=O)(=O)c2ccc(OC)c(OC)c2)cc1 [Compound 17, N-(4-(diethylamino)benzyl)-3,4-dimethoxy-N-(3,4,5-trimethoxybenzyl)benzenesulfonamide]
14 |  | 2000 |  | CCN(CC)c1ccc(CN(Cc2ccc3c(c2)OCO3)S(=O)(=O)c2ccc(-c3ccccc3)cc2)cc1 [Compound 34, N-(benzo[d][1,3]dioxol-5-ylmethyl)-N-(4-(diethylamino)benzyl)-[1,1′-biphenyl]-4-sulfonamide]
15 |  | 1020 |  | CCN(CC)c1ccc(CN(Cc2cccnc2)C(=O)c2cccs2)cc1 [Compound 21, N-(4-(diethylamino)benzyl)-N-(pyridin-3-ylmethyl)thiophene-2-carboxamide]

Row | SMILES | SI: selectivity index for CB2, calculated as Ki(CB1)/Ki(CB2) ratio [1] | Ki [1] [nM] | Ki [2] [nM]
16 | CCCCCN(Cc1ccc(N(CC)CC)cc1)S(=O)(=O)c1ccc(-c2ccccc2)cc1 [Compound 42, N-(4-(diethylamino)benzyl)-N-pentyl-[1,1′-biphenyl]-4-sulfonamide] |  | 3150 | 
